“Also recorded” adds a separate entry of the source.
Assays:
[1] = test system: carrageenan-induced edema in PPAR-α-WT and KO mice; test: carrageenan-induced edema in PPAR-alpha knock-out mice; assay type: in vivo; settings: Adelmidrol 10 mg/kg i.p.; for edema as a percentage with respect to the edema produced by carrageenan alone: PPAR-α-WT and KO mice
Method: In order to verify a possible involvement of PPAR-alpha receptor, the edema induced by carrageenan in the manners described above was carried out on PPAR-alpha knock-out mice (PPAR-α-WT and KO).
PPAR-α-WT and KO mice (10 animals per group) were divided into the following experimental groups: • CAR+physiological solution; • CAR+Adelmidrol (10 mg/kg); Adelmidrol was administered i.p. when injecting CAR.

[2] = test system: DNBS-induced bowel tissue lesion; test: DNBS-induced bowel tissue lesion, microscope lesion score; assay type: in vivo; settings: rat, DNBS 15 mg intrarectal, Adelmidrol 10 mg/kg per os in 2% CMC
Method: Rats were anesthetized with ethyl ether in order to ensure the animals' waking up after 4-5 minutes. 60 mg/mL DNBS was dissolved in 50% ethanol in water. An amount of 0.25 ml of alcoholic solution (containing 15 mg of DNBS) was instilled to each animal, using an 8 cm long intrarectal catheter made of silicone so as to reach […]. During the experiment, the possible ejection of the solution from the rectum when the animal awoke was carefully monitored, taking it into account in the final assessment. The assessment of the bowel lesion was performed by taking, upon sacrifice of the animal, the entire bowel which was adequately washed with physiological solution and immediately examined under a microscope. Adelmidrol was administered per os through a gastric cannula in an amount of 10 mg/kg dissolved in aqueous solution containing 2% CMC (carboxymethylcellulose). The bowel tissue lesion was quantized through microscope inspection by two different observers. […]

[3] = test system: bleomycin-induced lung edema; test: bleomycin-induced lung lesion, lung edema (wet vs dry lung weight); assay type: in vivo, CD1 male mice
Method: CD1 male mice ((CD1(ICR) mice (25-35 g; Harlan Nossan, Italy) were accommodated in a controlled environment and fed with standard food and water. Using a catheter (tracheotomy tube), the mice received a single intratracheal instillation of physiological solution (0.9%) or saline containing bleomycin sulfate (0.1 U/mouse) in a final volume of 100 μL, and the liquid was immediately followed by 300 μL of air in order to also ensure the distribution thereof in the distal airways. The weight of the wet lungs was calculated after 28 days upon injecting bleomycin by means of careful excision of the lung from the adjacent tissues. The lungs were exposed for 48 hours at 180° C. and the dry weight was then assessed. The lung water content was calculated as wet weight-to-dry weight ratio. In order to assess the degree of the existing lung edema, at the end of the experiment, even in untreated animals, the comparison of the wet lung weight to the lung weight after water removal was carried out. The results are shown in the chart in FIG. 6.

[4] = test system: myeloperoxidase (MPO); test: myeloperoxidase (MPO) activity in the bowel of DNBS-treated animals; assay type: in vivo, rat; settings: Adelmidrol 10 mg/kg orally
Method: The determination of the activity of the enzyme myeloperoxidase (MPO), which is considered an important marker of neutrophil activity in the bowel, fully confirms the effect of Adelmidrol on the colonic mucosa. The test was carried out by the method described in the literature (Morampudi V. et al. Journal of Visualized Experiments—February 2014; 84:1-8) on DBNS-treated animals, not treated animals, or animals orally treated with Adelmidrol (10 mg/kg).
The results are shown in the chart in FIG. 4.

[5] = test system: TNF-α and IL1β; test: bleomycin-induced lung lesion, dosage of inflammatory cytokines TNF-α and IL1β; assay type: in vivo, CD1 male mice; settings: BLM-treated mice
Method: CD1 male mice ((CD1(ICR) mice (25-35 g; Harlan Nossan, Italy) were accommodated in a controlled environment and fed with standard food and water.
Using a catheter (tracheotomy tube), the mice received a single intratracheal instillation of physiological solution (0.9%) or saline containing bleomycin sulfate (0.1 U/mouse) in a final volume of 100 μL, and the liquid was immediately followed by 300 μL of air in order to also ensure the distribution thereof in the distal airways.
TNF-α and IL1β are also regarded as the biochemical markers of inflammation and fibrosis of the lung. The results obtained are shown in the chart in FIG. 9.

SMILES: O=C(CCCCCCCC(=O)NCCO)NCCO [Adelmidrol, azelaic acid diethanolamide]
- protective action on carrageenan-induced edema in the absence of the PPAR-alpha receptor ([1]; PPAR-alpha knock-out mice): did not alter the protective action of Adelmidrol; also recorded: shows activity on the carrageenan-induced edema in mice genetically lacking the PPAR-alpha receptor
- edema as a percentage with respect to the edema produced by carrageenan alone ([1]; 0 min.): 102.4 percentage
- edema as a percentage with respect to the edema produced by carrageenan alone ([1]; 30 min): 81.9 percentage
- edema as a percentage with respect to the edema produced by carrageenan alone ([1]; 1 hr): 69.2 percentage
- edema as a percentage with respect to the edema produced by carrageenan alone ([1]; 2 hr): 63.9 percentage
- edema as a percentage with respect to the edema produced by carrageenan alone ([1]; 3 hr): 55.6 percentage
- edema as a percentage with respect to the edema produced by carrageenan alone ([1]; 4 hr): 51.4 percentage
- edema as a percentage with respect to the edema produced by carrageenan alone ([1]; 5 hr): 50.3 percentage
- bowel tissue lesion, score 0 to 8 by microscope inspection (FIG. 2, FIG. 3) [2]: important, significant protection of the colonic mucosa
- difference in lung weight between fresh organ and dried organ (FIG. 6) ([3]; mice not treated with BLM): does not change the difference in lung weight between fresh organ and dried organ
- difference in lung weight between fresh organ and dried organ (FIG. 6) ([3]; mice treated with BLM and Adelmidrol vs BLM and inert vehicle): considerably lower
- MPO activity in the bowel, marker of neutrophil activity (FIG. 4) [4]: anti-inflammatory effect on the bowel tissue
- IL1β level in the lung (FIG. 9) [5]: considerably reduces the levels of both inflammatory cytokines
- TNF-α level in the lung (FIG. 9) [5]: considerably reduces the levels of both inflammatory cytokines

Source: patent US20240315990A1, “Adelmidrol For Use In Diseases Characterized By Insufficient Agonism Of PPAR-GAMMA Receptor” (Epitech Group S.P.A., priority 2016, published 2024)
